For data set [1], the system named is collateral circulation model. Kind of data set: Promotion of collateral circulation (femoral artery ligation, ADP-added platelet suspension, leg blood flow). In kind it is in vivo, rat. The method, then:
Promotion of Collateral Circulation
A collateral circulation model was prepared by rat femoral artery ligation, and a test drug was orally administered 7 days later. At 1 hour from the test drug administration, ADP-added platelet suspension (200 μM) was administered under anesthesia into the femoral artery (1 mL/kg), and changes in the leg blood flow were measured. In the same manner as above, a comparative experiment was performed using cilostazol as a control compound.
(§1) In the Table, the values are mean±standard error (n=6).

Data set [2] concerns lauric acid-induced peripheral arterial obstruction model. Kind of data set: Lauric acid-induced peripheral arterial obstruction model (preventive effect). In kind it is in vivo, Wistar rats. As for the experimental part:
Effect on Lauric Acid-induced Peripheral Arterial Obstruction Model (Preventive Effect) Under anesthesia, lauric acid (0.75 mg/0.15 mL) was injected into the right femoral artery of Wistar rats (6-8 weeks of age). A drug was administered 1 hour before the lauric acid injection. The drug was orally administered twice a day for 8 days. In the same manner as above, a comparative experiment was performed using cilostazol as a control compound. In the Table, the values are mean±standard error (n=12).

Data set [3] can be described thus: Effect on heart rate and blood pressure. In kind it is in vivo, Wistar rat. The method, then: Effect on Heart Rate and Blood Pressure
A catheter was placed in the femoral artery of Wistar rat, and the blood pressure and heart rate were invasively monitored under no anesthesia or restriction. At 1 hour from the oral administration of the test drug, blood pressure and heart rate were taken. In the same manner as above, a comparative experiment was performed using cilostazol as a control compound.
In the Table, the values are mean±standard error (n=4).

Data set [4] deals with rat intermittent claudication model. Kind of data set: Effect on rat intermittent claudication model (femoral artery ligation, treadmill walking distance). Particulars: for walking distance 8 days after administration (Δm): 100 mg/kg oral twice a day, change vs value before ligation, mean±SE; for walking distance at day 8 of ligation (in words): control compounds, 100 mg/kg per Table 2. In kind it is in vivo. An excerpt:
Effect on Rat Intermittent Claudication Model
Rat was anesthetized and the right thigh was opened to expose femoral artery, which was ligated with a silk thread at a position nearest possible to the heart (upstream). In addition, a position about 1 cm from the ligation site to the periphery was ligated with a silk thread, making two ligature sites. Starting from the next day of preparation of a model to day 8 therefrom, a drug was orally administered twice a day for 8 days. However, the drug was orally administered only in the evening of the first day of administration and only in the morning of the final administration day. The walking distance was measured one day before model preparation (initial value), day 1, day 5 and day 8 with a treadmill apparatus. Using a gait test table without an angle of inclination, the conveyor advance speed was first set to 15 m/min, and the speed was increased every 5 min by 5 m/min until the animal failed walking three times, based on which the walking distance of the rat was measured. In the same manner as above, a comparative experiment was performed using sarpogrelate and cilostazol, respectively as a control compound.
In the Table, the values are mean±standard error (n=8 but n=6 only for sarpogrelate group).

Data set [5] relates to platelet rich plasma (PRP). Kind of data set: Platelet aggregation suppressive action (collagen + 5-HT, platelet rich plasma). The data set is classed as cell-based, Japanese white rabbit. Particulars: Oryctolagus cuniculus, rabbit PRP, collagen + 3 μM 5-HT. The method, then:
Platelet Aggregation Suppressive Action
Preparation of platelet rich plasma and a platelet aggregation test were performed according to the method of Born, G. V. R. et al. [Journal of Physiology, Vol. 168, p. 178 (1963)] as in the following. Blood was drawn from the carotid of male Japanese white rabbit with local anesthesia with xylocaine, using a syringe previously added with 3.8% sodium citrate in a 1/10 amount of the blood. This blood was centrifuged at 1000 round/min for 10 min at room temperature to give a platelet rich plasma (PRP) supernatant. This supernatant was further centrifuged at 3000 round/min for 10 min to give a platelet poor plasma (PPP) supernatant. Taking the measurement values of PRP and PPP as 0% aggregation and 100% aggregation, respectively, the platelet aggregation rate (%) was calculated. A test compound (3 μl) was added to 300 μl of PRP and the mixture was incubated at 37° C. for 5 min. Thereto were added, as aggregation inducing substances, collagen at a concentration prohibitive on aggregation by its single administration, and the final concentration of 3 μM of 5-HT, and the aggregation reaction was recorded for 7 min. The effect of the test compound was determined as percent suppression relative to the control group, using the maximum aggregation as an index. The 50% inhibition concentration (IC50) of the test compound was calculated by the nonlinear regression. In the same manner as above, a comparative experiment was conducted for the use of sarpogrelate and cilostazol, respectively as a control compound.

Data set [6] concerns lauric acid-induced peripheral arterial obstruction model. Kind of data set: Rat lauric acid-induced peripheral arterial obstruction model (therapeutic effect). The data set is classed as in vivo, Wistar rats. As for the experimental part: Effect on Rat Lauric Acid-induced Peripheral Arterial Obstruction Model (Therapeutic Effect) Under anesthesia, lauric acid (0.75 mg/0.15 mL) was injected into the right femoral artery of Wistar rats (6-8 weeks of age). A drug was administered one day after the lauric acid injection. The drug was orally administered twice a day for 7 days. In the same manner as above, a comparative experiment was performed using sarpogrelate and cilostazol as a control compound. In the Table, the values are mean±standard error (n=11).

For a further data set, the target named is T1, 5-HT2 receptor (Rattus norvegicus, UniProt P14842).
T1 construct: A crude synapse membrane was prepared from a freeze-dried rat cerebral cortex; from tissue; host or cells: rat cerebral cortex (crude synaptic membrane)
T1 sequence (P14842 whole entry): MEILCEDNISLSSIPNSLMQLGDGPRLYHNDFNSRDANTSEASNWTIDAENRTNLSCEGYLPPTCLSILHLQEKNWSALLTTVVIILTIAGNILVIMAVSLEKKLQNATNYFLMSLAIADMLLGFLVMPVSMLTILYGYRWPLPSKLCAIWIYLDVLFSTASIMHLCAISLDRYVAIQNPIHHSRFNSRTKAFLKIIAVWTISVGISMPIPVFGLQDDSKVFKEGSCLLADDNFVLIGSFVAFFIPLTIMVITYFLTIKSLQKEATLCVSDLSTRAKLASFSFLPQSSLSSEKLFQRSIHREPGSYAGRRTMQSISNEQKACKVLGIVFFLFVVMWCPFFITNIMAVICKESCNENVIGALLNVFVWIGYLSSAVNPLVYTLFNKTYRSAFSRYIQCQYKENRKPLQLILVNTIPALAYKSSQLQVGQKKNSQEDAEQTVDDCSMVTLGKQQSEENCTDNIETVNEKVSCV
Kind of data set: Affinity for 5-HT2 receptor (binding with 3H-ketanserine). The settings on record: rat cerebral cortex crude synapse membrane, 37° C. 20 min. As for the experimental part: Affinity for 5-HT2 Receptor (Binding with ^3H-ketanserine)
Preparation of a crude synapse membrane and a binding test were performed according to the method of Leysen J. E. et al. [Molecular Pharmacology, Vol. 21, p. 301 (1982)]. A crude synapse membrane was prepared from a freeze-dried rat cerebral cortex, and the membrane specimen and ^3H-ketanserine were incubated in the presence of a test compound at 37° C. for 20 min. After the completion of the reaction, the reaction mixture was immediately filtered by suction on a Whatmann GF/B filter (trademark), and the radioactivity on the filter was measured on a liquid scintillation counter. The amount of non-specific binding was measured in the presence of 10 μM mianserin. The 50% inhibition concentration (IC50) of the test compound was calculated by the nonlinear regression. In the same manner as above, a comparative test was performed using sarpogrelate as a control compound.

The test system of a further data set is erythrocytes. Kind of data set: Improvement effect of erythrocyte deformation (Nuclepore membrane filter method). The data set is classed as in vivo, SHRSP (stroke prone spontaneously hypertensive rat). The settings on record: SHRSP. As for the experimental part: Improvement Effect of Erythrocyte Deformation
Blood was drawn under anesthesia from SHRSP (stroke prone spontaneously hypertensive rat) loaded with 1% saline for 3 weeks, and the time necessary for 0.5 mL of blood to pass through a filter (pore size 5 μm, Nuclepore) was measured by the Nuclepore membrane filter method of Reid et al., based on which the volume (mL/min) of the erythrocytes passed was calculated. The volume of the erythrocytes passed was taken as an index of erythrocyte deformation. A drug was orally administered 1 hour before drawing the blood. In the same manner as above, a comparative experiment was performed using sarpogrelate as a control compound.
as §1

Where [7] appears, read: 100 mg/kg oral, 1 hour, after ADP-added platelet suspension.
[8] abbreviates: 100 mg/kg oral twice a day, first dose 1 h before lauric acid, score 0 normal to 6.
Where [9] appears, read: 100 mg/kg oral, 1 hour, no anesthesia or restriction.
Setting [10] is: 100 mg/kg oral twice a day from one day after lauric acid, score 0 normal to 6.

As usually defined, the IC50 is the point on the concentration scale where inhibition reaches its midpoint. One may read the melting point as the temperature of the solid-liquid transition.

Turning to `O=C1CCc2cc(OCCCCc3nnnn3C3CCCCC3)ccc2N1` [Cilostazol, reference compound], the “decrease in leg blood flow caused by ADP-added platelet suspension (in words)” value in data set [1] (100 mg/kg) is “suppressed a decrease in the blood flow on the ligation side only slightly”. Besides, in data set [1] (setting [7]), the “Change in blood flow, control side” value was −27.0 ± 5.0 % and the “Change in blood flow, femoral artery ligation side” value is −63.3 ± 2.4 %. Further, in [2] (setting [8]), the “Lesion score 1 day later” value amounted to 1.8 ± 0.1, the “Lesion score 3 days later” value came to 2.2 ± 0.2, the “Lesion score 5 days later” value amounted to 1.8 ± 0.4 and the “Lesion score 7 days later” value stood at 2.2 ± 0.5. In addition, in [2] (100 mg/kg, prior to the lauric acid injection), the “peripheral circulatory disturbance (in words)” value is given as “significantly reduced the peripheral circulatory disturbance”. Further, in [3] (setting [9]), the “Change of blood pressure” value stood at 1.3 ± 1.3 mmHg and the “Change of heart rate” value came to 43.8 ± 6.7 beats/min. The “influence on heart rate (in words)” value in data set [3] (300 mg/kg as printed) was “increased the heart rate”. In [4], the “walking distance 8 days after administration (Δm)” value is given as −149.8 ± 22.7 m and the “walking distance at day 8 of ligation (in words)” value is on record as “increased the walking distance but the increase was not significant”. Besides, the IC50 in data set [5] is 1380 nM. Moreover, in data set [6] (setting [10]), the “Lesion score 3 days later” value is 1.5 ± 0.3, the “Lesion score 5 days later” value was 1.4 ± 0.4 and the “Lesion score 7 days later” value was 1.3 ± 0.4. Moreover, in [6] (100 mg/kg, from one day after the lauric acid injection), the “peripheral circulatory disturbance (in words)” value is reported as “significantly reduced the peripheral circulatory disturbance”.

Turning to `Cc1ccccc1C(C(=O)N[C@H]1CCN(CCc2ccc(F)cc2)C1)c1ccccc1C` [Example 75, (S)-2,2-bis(2-methylphenyl)-N-(1-(2-(4-fluorophenyl)ethyl)pyrrolidin-3-yl)acetamide], the melting point lay in the range of 108 to 110 °C.

Regarding `COc1cccc(CCc2ccccc2OCC(CN(C)C)OC(=O)CCC(=O)O)c1` (centres unmarked) [Sarpogrelate, reference compound], the IC50 at 5-HT2 receptor was 27 nM. For the same compound, in data set [4], the “walking distance 8 days after administration (Δm)” value is reported as −151.3 ± 35.4 m and the “walking distance at day 8 of ligation (in words)” value is reported as “increased the walking distance but the increase was not significant”. The IC50 in data set [5] amounted to 260 nM. Moreover, the “volume of the erythrocyte passed, % of the vehicle group” value with erythrocytes (100 mg/kg) is recorded as 128%. The “Volume of erythrocytes passed” value in the data set with erythrocytes (100 mg/kg oral 1 hour before drawing blood, 5 μm filter) is 1.01 ± 0.10 mL/min. Further, in [6] (setting [10]), the “Lesion score 1 day later” value is 1.9 ± 0.2, the “Lesion score 3 days later” value is on record as 2.3 ± 0.3, the “Lesion score 5 days later” value was 2.1 ± 0.5 and the “Lesion score 7 days later” value stood at 2.4 ± 0.6.

The record behind these values is patent US6468998B1, “Pyrrolidine compounds and medicinal utilization thereof” (Mitsubishi Pharma Corporation, priority 1998, dated 2002).
